From BindingDB's records for patent US20240116892 (Ajax Therapeutics, Inc., 2024) come the findings set out here.

Each structure is given as a SMILES string.

A word on the Kd: it is the equilibrium constant for the complex coming apart. High values mean a looser complex, low ones a tighter complex.

For the assay, the target named is Tyrosine-protein kinase JAK2 [Y1007F,Y1008F] (Homo sapiens, UniProt O60674, Y1007F/Y1008F). The assay is described as follows: JAK2 Binding Assay. Here is the method:
JAK2 (JH1 domain-catalytic, Y1007F, Y1008F) kinase was expressed as N-terminal fusion to the DNA binding domain of NFkB in transiently transfected HEK293 cells and subsequently tagged with DNA for qPCR detection. Streptavidin-coated magnetic beads were treated with biotinylated small molecule ligands for 30 minutes at room temperature to generate affinity resins for kinase assays. The liganded beads were blocked with excess biotin and washed with blocking buffer (SeaBlock (Pierce), 1% BSA, 0.05% Tween 20, 1 mmol/L DTT) to remove unbound ligand and to reduce nonspecific phage binding. Binding reactions were assembled by combining kinases, liganded affinity beads, and test compounds in 1× binding buffer (1× PBS, 0.05% Tween 20, 0.1% BSA, 1 mmol/L DTT). Test compound was prepared as 111× stocks in 100% DMSO and directly diluted into the assay wells. All reactions were performed in polypropylene 384-well plates in a final volume of 0.02 mL. The assay plates were incubated at room temperature with shaking for 1 hour and the affinity beads were washed with wash buffer (1× PBS, 0.05% Tween 20). The beads were then re-suspended in elution buffer (1× PBS, 0.05% Tween 20, 0.5 μmol/L non-biotinylated affinity ligand) and incubated at room temperature with shaking for 30 minutes. The kinase concentration in the eluate was measured by qPCR.

Sequence of Tyrosine-protein kinase JAK2 [Y1007F,Y1008F] (O60674 whole entry Y1007F/Y1008F, the tested form may be a part): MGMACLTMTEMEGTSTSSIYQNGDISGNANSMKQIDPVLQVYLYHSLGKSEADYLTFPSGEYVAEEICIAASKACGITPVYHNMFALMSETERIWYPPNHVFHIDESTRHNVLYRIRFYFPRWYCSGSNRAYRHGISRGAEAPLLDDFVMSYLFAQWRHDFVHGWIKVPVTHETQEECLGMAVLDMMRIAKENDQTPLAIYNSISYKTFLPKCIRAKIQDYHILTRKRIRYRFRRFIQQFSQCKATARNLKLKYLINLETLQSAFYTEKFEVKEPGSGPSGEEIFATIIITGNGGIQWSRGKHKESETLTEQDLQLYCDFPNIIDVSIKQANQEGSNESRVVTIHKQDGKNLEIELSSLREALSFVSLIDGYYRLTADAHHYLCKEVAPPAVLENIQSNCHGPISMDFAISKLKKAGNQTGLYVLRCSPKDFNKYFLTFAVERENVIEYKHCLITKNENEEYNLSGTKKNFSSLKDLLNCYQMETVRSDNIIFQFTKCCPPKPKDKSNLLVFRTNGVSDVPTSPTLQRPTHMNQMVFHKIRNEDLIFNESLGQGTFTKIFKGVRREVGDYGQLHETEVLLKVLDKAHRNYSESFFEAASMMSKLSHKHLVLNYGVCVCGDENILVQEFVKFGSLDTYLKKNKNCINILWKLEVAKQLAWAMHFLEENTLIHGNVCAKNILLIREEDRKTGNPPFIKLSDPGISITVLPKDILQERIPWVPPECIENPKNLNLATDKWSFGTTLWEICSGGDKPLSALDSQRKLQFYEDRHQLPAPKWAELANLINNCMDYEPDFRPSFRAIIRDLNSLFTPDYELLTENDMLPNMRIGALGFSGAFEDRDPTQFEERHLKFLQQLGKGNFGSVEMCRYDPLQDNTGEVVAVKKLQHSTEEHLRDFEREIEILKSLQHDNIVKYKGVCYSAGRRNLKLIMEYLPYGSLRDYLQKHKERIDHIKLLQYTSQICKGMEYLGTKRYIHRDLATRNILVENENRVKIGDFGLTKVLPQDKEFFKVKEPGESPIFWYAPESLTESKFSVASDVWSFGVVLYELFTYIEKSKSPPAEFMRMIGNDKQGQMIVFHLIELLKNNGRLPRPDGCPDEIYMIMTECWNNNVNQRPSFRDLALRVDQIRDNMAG

Regarding `CN(C(=O)Nc1cc(C(F)(F)F)cn(C)c1=O)[C@@H]1CCN(c2cnc3[nH]ncc3c2)C[C@@H]1F` [US20240116892, Compound I-62-b], the Kd was < 10 nM. The value for `CN(C(=O)Nc1cc(C(F)(F)F)cn(C)c1=O)C12CC(c3cnc4[nH]ccc4c3)(C1)C2` [US20240116892, Compound I-121] was < 10 nM; that for `Cn1cc(C(F)(F)F)cc(NC(=O)N2CCO[C@@H]3CN(c4cnc(NC(=O)C5CC5)cn4)CC[C@H]32)c1=O` [US20240116892, Compound I-148-b] was < 10 nM.
